Measured values from patent publication US12516058B2, “Small-molecule compounds for controlling endosomal toll-like receptors and therapeutic agent for autoimmune diseases using same” (priority 2020, dated 2026).
“Also recorded” adds a separate entry of the source.

Experiments:
[1] = target: T1, TLR9 (Mus musculus, UniProt Q9EQU3); assay: TNF-α secretion ELISA after TLR9 agonist ODN2395 in RAW 264.7 cells; format: cell-based; conditions: SK21 to SK82 at 0.5 μM or 2 μM, ODN2395 0.5 μM
T1 construct: endogenous in cells; host or cells: RAW 264.7
T1 sequence (Q9EQU3 26-1032): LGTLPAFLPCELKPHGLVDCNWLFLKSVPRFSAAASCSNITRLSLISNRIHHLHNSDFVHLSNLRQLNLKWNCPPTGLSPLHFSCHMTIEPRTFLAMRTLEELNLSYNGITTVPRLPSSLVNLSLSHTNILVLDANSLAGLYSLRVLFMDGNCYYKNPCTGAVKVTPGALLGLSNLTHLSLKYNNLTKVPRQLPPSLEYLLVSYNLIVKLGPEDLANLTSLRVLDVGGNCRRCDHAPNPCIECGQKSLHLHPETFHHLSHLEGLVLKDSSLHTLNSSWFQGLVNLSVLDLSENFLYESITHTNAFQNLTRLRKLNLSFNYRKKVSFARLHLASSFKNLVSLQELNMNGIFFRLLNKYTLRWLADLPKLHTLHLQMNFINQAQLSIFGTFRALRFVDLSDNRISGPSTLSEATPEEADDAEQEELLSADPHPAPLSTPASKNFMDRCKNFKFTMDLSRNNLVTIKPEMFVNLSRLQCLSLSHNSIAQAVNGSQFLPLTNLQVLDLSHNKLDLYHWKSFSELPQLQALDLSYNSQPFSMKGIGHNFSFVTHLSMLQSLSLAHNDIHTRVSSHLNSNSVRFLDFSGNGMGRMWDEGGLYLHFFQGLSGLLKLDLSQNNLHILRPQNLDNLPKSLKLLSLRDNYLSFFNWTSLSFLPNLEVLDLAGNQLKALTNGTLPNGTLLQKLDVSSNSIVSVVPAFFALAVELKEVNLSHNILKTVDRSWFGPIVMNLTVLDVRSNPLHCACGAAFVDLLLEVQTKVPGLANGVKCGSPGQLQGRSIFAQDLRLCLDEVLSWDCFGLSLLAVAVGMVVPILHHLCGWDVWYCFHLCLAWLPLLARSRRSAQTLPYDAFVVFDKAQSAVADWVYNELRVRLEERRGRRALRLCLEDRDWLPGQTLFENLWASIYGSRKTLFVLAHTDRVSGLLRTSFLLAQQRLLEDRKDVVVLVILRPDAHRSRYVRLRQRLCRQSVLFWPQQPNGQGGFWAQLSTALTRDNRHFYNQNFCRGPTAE
Protocol: (§1) In order to determine the inhibitory activities of the test-ligand, RAW 264.7 cells were pretreated with each candidate compound for 1 hour, then treated with Pam3CSK4 (synthetic triacyl lipopeptide; TLR1/2, Invitrogen), FSL-1 (synthetic diacyl lipoprotein, TLR2/6, 100 ng/ml), lipopolysaccharide (LPS, TLR4, Sigma Aldrich), imiquimod (IMQ, TLR7, Invitrogen), and ODN2395 (type C CpG repeat motif DNA oligo(5′-[…]-3), TLR9, Bioneer) ligand for 4 hours, and treated with poly I:C (I:C repeat motif double-stranded RNA, TLR3, Invitrogen) and TL8-506 (TLR8, Invitrogen) showing delayed reactivity for 24 hours. After activation of TLR, the supernatant was diluted in an appropriate ratio so as to measure within the standard dose range, transferred to a pre-coated 96-well assay plate, and then treated with mouse TNF-alpha secretion level in accordance with the manufacturer's instructions using a mouse-TNF-alpha ELISA-kit (Invitrogen).
(§2) In order to plot the concentration-dependent LC50 curves, treatment with the SK series ligands at different concentrations up to 200 μM (the highest concentration that could be treated within the level of 0.5% DMSO) was performed. Then, cell viability and toxicity response upon treatment with ligands were analyzed by MTT as described in Examples 1-3. Cell viability in each plot was normalized from negative control (100%; no treatment) to positive control (highest concentration of test-ligand), and LC50 was determined by non-linear regression (Graph Pad Prism 7.0). In order to plot the concentration-dependent IC50 curves, pre-treatment with the SK series ligands was performed at different concentrations up to 50 μM (twice the initial concentration). Cell responses mediated by TLR7 and TLR9 (levels of TNF-α secretion) were analyzed by ELISA as described in Examples 1-4. The cytokine level in each plot was normalized from negative control (non-treated) to positive control (treatment with ligand), and IC50 was determined by non-linear regression (Graph Pad Prism 7.0).
(§3) In order to select potential inhibitory molecules against TLR3/TLR7/TLR8/TLR9 activation, first, MTT (3-(4,5-dimethylthiazol-2-yl)-2,5-diphenyltetrazolium bromide) cell viability assay (FIG. 7) was performed upon treatment with a set of ligands from SK21 to SK82 at a concentration of 20 μM and the inhibitory activity thereof was evaluated by an ELISA assay to monitor the level of TNF-α secretion in RAW 264.7 cells. The experimental ligands from SK21 to SK82 were administered at 0.5 μM or 2 μM to the RAW 264.7 cells and stimulated with Imiquimod (TLR7, 1 μg/ml) and OND2395 (TLR9, 0.5 μM).

[2] = target: T2, TLR7 (Mus musculus, UniProt P58681); assay: TNF-α secretion ELISA after TLR7 agonist imiquimod (IMQ) in RAW 264.7 cells; format: cell-based; conditions: SK21 to SK82 at 0.5 μM or 2 μM, Imiquimod 1 μg/ml
T2 construct: endogenous in cells; host or cells: RAW 264.7
T2 sequence (P58681 27-1050): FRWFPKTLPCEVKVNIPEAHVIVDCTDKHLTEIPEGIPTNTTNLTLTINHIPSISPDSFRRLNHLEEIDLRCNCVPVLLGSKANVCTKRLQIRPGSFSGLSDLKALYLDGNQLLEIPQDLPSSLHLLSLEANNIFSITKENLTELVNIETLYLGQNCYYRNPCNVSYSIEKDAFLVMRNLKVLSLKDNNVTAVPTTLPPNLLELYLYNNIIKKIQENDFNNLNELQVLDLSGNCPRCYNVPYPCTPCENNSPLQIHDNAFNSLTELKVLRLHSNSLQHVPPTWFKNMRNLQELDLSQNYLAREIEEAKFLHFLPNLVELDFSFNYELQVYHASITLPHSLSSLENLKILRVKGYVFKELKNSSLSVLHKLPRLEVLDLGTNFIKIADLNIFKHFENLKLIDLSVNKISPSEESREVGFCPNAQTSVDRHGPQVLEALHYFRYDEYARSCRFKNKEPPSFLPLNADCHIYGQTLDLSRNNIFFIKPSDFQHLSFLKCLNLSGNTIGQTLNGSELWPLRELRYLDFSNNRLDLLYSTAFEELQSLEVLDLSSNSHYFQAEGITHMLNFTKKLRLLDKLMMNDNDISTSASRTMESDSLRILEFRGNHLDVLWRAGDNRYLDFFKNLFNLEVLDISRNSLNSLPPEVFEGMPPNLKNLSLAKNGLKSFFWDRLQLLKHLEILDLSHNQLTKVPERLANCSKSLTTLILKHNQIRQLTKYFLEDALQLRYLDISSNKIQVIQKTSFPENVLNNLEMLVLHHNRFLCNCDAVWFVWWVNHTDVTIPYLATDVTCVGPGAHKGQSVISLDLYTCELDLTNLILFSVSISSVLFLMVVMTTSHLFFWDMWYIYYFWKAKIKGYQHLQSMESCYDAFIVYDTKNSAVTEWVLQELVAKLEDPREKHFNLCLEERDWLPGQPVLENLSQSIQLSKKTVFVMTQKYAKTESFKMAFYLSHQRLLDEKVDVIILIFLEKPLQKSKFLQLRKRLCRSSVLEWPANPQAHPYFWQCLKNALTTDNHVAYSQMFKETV
Protocol: as §1, §2, §3

Row | Structure (SMILES) | inhibitory activity against TLR9 (level of TNF-α secretion) [1] | inhibitory activity against TLR7 (level of TNF-α secretion) [2] | inhibitory activity against TLR9 (level of TNF-α secretion) ([1]; listed as SK 74) | inhibitory activity against TLR7 (level of TNF-α secretion) ([2]; listed as SK 74)
1 | CN(C)CCCn1c2ccc(C#N)cc2c2c(N)c3c(nc21)CCCC3 [SK62, 11-amino-6-(3-(dimethylamino)propyl)-2,3,4,6-tetrahydro-1H-indolo[2,3-b]quinolin-9-carbonitrile] | significant inhibitory activity; also recorded: significantly reduced | significant inhibitory activity; also recorded: significantly reduced | – | –
2 | CN(C)CCCn1c2ccc(C(F)(F)F)cc2c2c(N)c3c(nc21)CCCC3 [SK63, 6-(3-(dimethylamino)propyl)-9-(trifluoromethyl)-2,3,4,6-tetrahydro-1H-indolo[2,3-b]quinolin-11-amine] | significant inhibitory activity; also recorded: significantly reduced | significant inhibitory activity; also recorded: significantly reduced | – | –
3 | COc1ccc2c3c(N)c4c(nc3n(CCCN(C)C)c2c1)CCCC4 [SK65, 6-(3-(dimethylamino)propyl)-8-methoxy-2,3,4,6-tetrahydro-1H-indolo[2,3-b]quinolin-11-amine] | significant inhibitory activity; also recorded: significantly reduced | significant inhibitory activity; also recorded: significantly reduced | – | –
4 | CN(C)CCCn1c2ccc(OCc3ccccc3)cc2c2c(N)c3c(nc21)CCCC3 [SK69, 9-(benzyloxy)-6-(3-(dimethylamino)propyl)-2,3,4,6-tetrahydro-1H-indolo[2,3-b]quinolin-11-amine] | significant inhibitory activity; also recorded: significantly reduced | significant inhibitory activity; also recorded: significantly reduced | – | –
5 | CC(C)Oc1ccc2c(c1)c1c(N)c3c(nc1n2CCCN(C)C)CCCC3 [SK70, 6-(3-(dimethylamino)propyl)-9-isopropoxy-2,3,4,6-tetrahydro-1H-indolo[2,3-b]quinolin-11-amine] | significant inhibitory activity; also recorded: significantly reduced | significant inhibitory activity; also recorded: significantly reduced | – | –
6 | CN(C)CCCn1c2ccc(O)cc2c2c(N)c3c(nc21)CCCC3 [SK71, 11-amino-6-(3-(dimethylamino)propyl)-2,3,4,6-tetrahydro-1H-indolo[2,3-b]quinolin-9-ol] | significant inhibitory activity; also recorded: significantly reduced | significant inhibitory activity; also recorded: significantly reduced | – | –
7 | CN(C)CCCNc1c2c(nc3c1c1c4ccccc4ccc1n3CCCN(C)C)CCCC2 [SK72, N1-(7-(3-(dimethylamino)propyl)-9,10,11,12-tetrahydro-7H-benzo[4,5]indolo[2,3-b]quinolin-13-yl)-N3,N3-dimethylpropane-1,3-diamine] | significant inhibitory activity; also recorded: significantly reduced | significant inhibitory activity; also recorded: significantly reduced | – | –
8 | CN(C)CCCn1c2ccc3ccccc3c2c2c(N)c3c(nc21)CCCC3 [SK74, 7-(3-(dimethylamino)propyl)-9,10,11,12-tetrahydro-7H-benzo[4,5]indolo[2,3-b]quinolin-13-amine] | significantly reduced | significantly reduced | significant inhibitory activity | significant inhibitory activity
9 | CNCCCn1c(C)c(C)c2c(N)c3c(nc21)CCCCCC3 [SK75, 2,3-dimethyl-1-(3-(methylamino)propyl)-5,6,7,8,9,10-hexahydro-1H-cycloocta[b]pyrrolo[3,2-e]pyridin-4-amine] | significant inhibitory activity; also recorded: significantly reduced | significant inhibitory activity; also recorded: significantly reduced | – | –
10 | Cc1ccc2c3c(N)c4c(nc3n(CCCN(C)C)c2c1)CCCC4 [SK81, 6-(3-(dimethylamino)propyl)-8-methyl-2,3,4,6-tetrahydro-1H-indolo[2,3-b]quinolin-11-amine] | significant inhibitory activity; also recorded: significantly reduced | significant inhibitory activity; also recorded: significantly reduced | – | –
11 | CN(C)CCCn1c2cc(Cl)ccc2c2c(N)c3c(nc21)CCCC3 [SK82, 8-chloro-6-(3-(dimethylamino)propyl)-2,3,4,6-tetrahydro-1H-indolo[2,3-b]quinolin-11-amine] | significant inhibitory activity; also recorded: significantly reduced | significant inhibitory activity; also recorded: significantly reduced | – | –
